Assay results taken from patent publication US20100279997A1, “ANALGESIC THAT BINDS FILAMIN A” (priority 2009, published 2010).
Where two headings read alike, the source gives them in different places.

Assays:
[1] = Mouse hot-water tail-flick test; format: in vivo
Experimental: The mouse “tail flick” test was used to assay the relative antinociceptive activity of compositions containing a compound to be assayed. This assay was substantially that disclosed by Xie et al., 2005 J. Neurosci 25:409-416.
The mouse hot-water tail-flick test was performed by placing the distal third of the tail in a water bath maintained at 52° C. The latency until tail withdrawal from the bath was determined and compared among the treatments. A 10 second cutoff was used to avoid tissue damage. Data are converted to percentage of antinociception by the following formula: (response latency−baseline latency)/(cutoff−baseline latency)×100 to generate dose-response curves. […] Relative potency was determined as a ratio of the A50 values.
To assess tolerance to the antinociceptive effect, the compound was administered twice daily for 7 days at an A90 dose (dose that results in a 90% antinociceptive effect in the 52° C. warm-water tail-flick test), and the tail-flick test was performed daily after the a.m. dose.

μ opiate receptor (MOR) = molecular target: T1, μ opiate receptor (MOR) (Rattus norvegicus, UniProt P33535); test: MOR agonist activity, [35S]GTPγS binding assay using striatal membranes; format: biochemical; conditions: for [35S]GTPγS binding to Gαo, FLNA-binding compound as agonist 0.1 μM: 0.1 μM compound; for [35S]GTPγS binding to Gαo, FLNA-binding compound as agonist 0.1 μM / [35S]GTPγS binding to Gαo, FLNA-binding compound as agonist 1 μM: striatal membranes; for [35S]GTPγS binding to Gαo, FLNA-binding compound as agonist 1 μM + BFNA: 1 μM compound + 1 μM β-funaltrexamine; for [35S]GTPγS binding to Gαo, FLNA-binding compound as agonist 1 μM: 1 μM compound; for % DAMGO + BFNA: relative to DAMGO + BFNA; for % DAMGO (0.1 μM) / % DAMGO (1 μM): relative to DAMGO
T1 construct: from tissue; host or cells: striatal tissue (membrane preparation)
T1 sequence (P33535 whole entry): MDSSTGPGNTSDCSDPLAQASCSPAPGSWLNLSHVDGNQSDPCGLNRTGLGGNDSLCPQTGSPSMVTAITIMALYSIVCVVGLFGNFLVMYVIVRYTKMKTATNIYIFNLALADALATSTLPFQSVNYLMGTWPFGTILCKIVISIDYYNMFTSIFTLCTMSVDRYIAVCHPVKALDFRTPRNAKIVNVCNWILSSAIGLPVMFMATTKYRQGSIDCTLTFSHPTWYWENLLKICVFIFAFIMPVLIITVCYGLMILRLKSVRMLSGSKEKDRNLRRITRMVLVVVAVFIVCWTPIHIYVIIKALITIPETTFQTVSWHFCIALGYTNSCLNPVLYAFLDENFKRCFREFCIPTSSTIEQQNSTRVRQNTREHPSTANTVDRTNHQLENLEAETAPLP
Experimental: To assess the μ opiate receptor (MOR) agonist activity of positive compounds from the FLNA screening, compounds were tested in a [^35S]GTPγS binding assay using striatal membranes.
Striatal tissue was homogenized in 10 volumes of ice cold 25 mM HEPES buffer, pH 7.4, which contained 1 mM EGTA, 100 mM sucrose, 50 μg/ml leupeptin, 0.04 mM PMSF, 2 μg/ml soybean trypsin inhibitor and 0.2% 2-mercaptoethanol. The homogenates were centrifuged at 800×g for 5 minutes and the supernatants were centrifuged at 49,000×g for 20 minutes. The resulting pellets were suspended in 10 volume of reaction buffer, which contained 25 mM HEPES, pH 7.5, 100 mM NaCl, 50 μg/ml leupeptin, 2 μg/ml soybean trypsin inhibitor, 0.04 mM PMSF and 0.02% […].
The resultant striatal membrane preparation (200 μg) was admixed and maintained (incubated) at 30° C. for 5 minutes in reaction buffer as above that additionally contained 1 mM MgCl2 and 0.5 nM [^35S]GTPγS (0.1 μCi/assay, PerkinElmer Life and Analytical Sciences) in a total volume of 250 μl and continued for 5 minutes in the absence or presence of 0.1-10 μM of an assayed compound of interest. The reaction was terminated by dilution with 750 μl of ice-cold reaction buffer that contained 20 mM MgCl2 and 1 mM EGTA and immediate centrifugation at 16,000×g for 5 minutes.
The resulting pellet was solubilized by sonicating for 10 seconds in 0.5 ml of immunoprecipitation buffer containing 0.5% digitonin, 0.2% sodium cholate and 0.5% NP-40. Normal rabbit serum (1 μl) was added to 1 ml of lysate and incubated at 25° C. for 30 minutes. Nonspecific immune complexes were removed by incubation with 25 μl of protein A/G-conjugated agarose beads at 25° C. for 30 minutes followed by centrifugation at 5,000×g at 4° C. for 5 minutes. The supernatant was divided and separately incubated at 25° C. for 30 minutes with antibodies raised against Gao proteins (1:1,000 dilutions).
The immunocomplexes so formed were collected by incubation at 25° C. for 30 minutes with 40 μl of agarose-conjugated protein A/G beads and centrifugation at 5,000×g at 4° C. for 5 minutes. The pellet was washed and suspended in buffer containing 50 mM Tris-HCl, pH 8.0, and 1% NP-40. The radioactivity in the suspension was determined by liquid scintillation spectrometry. […] DAMGO (H-Tyr-D-Ala-Gly-N-MePhe-Gly-OH; 1 or 10 μM) was used as a positive control.

[2] = molecular target: Bn-VAKGL pentapeptide of filamin A (FLNA) (Homo sapiens, UniProt P21333); test: FITC-NLX-based FLNA screening assay (FLNA peptide binding assay)
Experimental: The final assay volume is 100 μl.
Compounds are tested in triplicate or quadruplicate.

filamin A = filamin A (Homo sapiens, UniProt P21333); conditions: Wang et al, 2008 PLoS One 3:e1554; read-out: affinity of binding to filamin A; cited from earlier work
Sequence of filamin A (P21333 whole entry): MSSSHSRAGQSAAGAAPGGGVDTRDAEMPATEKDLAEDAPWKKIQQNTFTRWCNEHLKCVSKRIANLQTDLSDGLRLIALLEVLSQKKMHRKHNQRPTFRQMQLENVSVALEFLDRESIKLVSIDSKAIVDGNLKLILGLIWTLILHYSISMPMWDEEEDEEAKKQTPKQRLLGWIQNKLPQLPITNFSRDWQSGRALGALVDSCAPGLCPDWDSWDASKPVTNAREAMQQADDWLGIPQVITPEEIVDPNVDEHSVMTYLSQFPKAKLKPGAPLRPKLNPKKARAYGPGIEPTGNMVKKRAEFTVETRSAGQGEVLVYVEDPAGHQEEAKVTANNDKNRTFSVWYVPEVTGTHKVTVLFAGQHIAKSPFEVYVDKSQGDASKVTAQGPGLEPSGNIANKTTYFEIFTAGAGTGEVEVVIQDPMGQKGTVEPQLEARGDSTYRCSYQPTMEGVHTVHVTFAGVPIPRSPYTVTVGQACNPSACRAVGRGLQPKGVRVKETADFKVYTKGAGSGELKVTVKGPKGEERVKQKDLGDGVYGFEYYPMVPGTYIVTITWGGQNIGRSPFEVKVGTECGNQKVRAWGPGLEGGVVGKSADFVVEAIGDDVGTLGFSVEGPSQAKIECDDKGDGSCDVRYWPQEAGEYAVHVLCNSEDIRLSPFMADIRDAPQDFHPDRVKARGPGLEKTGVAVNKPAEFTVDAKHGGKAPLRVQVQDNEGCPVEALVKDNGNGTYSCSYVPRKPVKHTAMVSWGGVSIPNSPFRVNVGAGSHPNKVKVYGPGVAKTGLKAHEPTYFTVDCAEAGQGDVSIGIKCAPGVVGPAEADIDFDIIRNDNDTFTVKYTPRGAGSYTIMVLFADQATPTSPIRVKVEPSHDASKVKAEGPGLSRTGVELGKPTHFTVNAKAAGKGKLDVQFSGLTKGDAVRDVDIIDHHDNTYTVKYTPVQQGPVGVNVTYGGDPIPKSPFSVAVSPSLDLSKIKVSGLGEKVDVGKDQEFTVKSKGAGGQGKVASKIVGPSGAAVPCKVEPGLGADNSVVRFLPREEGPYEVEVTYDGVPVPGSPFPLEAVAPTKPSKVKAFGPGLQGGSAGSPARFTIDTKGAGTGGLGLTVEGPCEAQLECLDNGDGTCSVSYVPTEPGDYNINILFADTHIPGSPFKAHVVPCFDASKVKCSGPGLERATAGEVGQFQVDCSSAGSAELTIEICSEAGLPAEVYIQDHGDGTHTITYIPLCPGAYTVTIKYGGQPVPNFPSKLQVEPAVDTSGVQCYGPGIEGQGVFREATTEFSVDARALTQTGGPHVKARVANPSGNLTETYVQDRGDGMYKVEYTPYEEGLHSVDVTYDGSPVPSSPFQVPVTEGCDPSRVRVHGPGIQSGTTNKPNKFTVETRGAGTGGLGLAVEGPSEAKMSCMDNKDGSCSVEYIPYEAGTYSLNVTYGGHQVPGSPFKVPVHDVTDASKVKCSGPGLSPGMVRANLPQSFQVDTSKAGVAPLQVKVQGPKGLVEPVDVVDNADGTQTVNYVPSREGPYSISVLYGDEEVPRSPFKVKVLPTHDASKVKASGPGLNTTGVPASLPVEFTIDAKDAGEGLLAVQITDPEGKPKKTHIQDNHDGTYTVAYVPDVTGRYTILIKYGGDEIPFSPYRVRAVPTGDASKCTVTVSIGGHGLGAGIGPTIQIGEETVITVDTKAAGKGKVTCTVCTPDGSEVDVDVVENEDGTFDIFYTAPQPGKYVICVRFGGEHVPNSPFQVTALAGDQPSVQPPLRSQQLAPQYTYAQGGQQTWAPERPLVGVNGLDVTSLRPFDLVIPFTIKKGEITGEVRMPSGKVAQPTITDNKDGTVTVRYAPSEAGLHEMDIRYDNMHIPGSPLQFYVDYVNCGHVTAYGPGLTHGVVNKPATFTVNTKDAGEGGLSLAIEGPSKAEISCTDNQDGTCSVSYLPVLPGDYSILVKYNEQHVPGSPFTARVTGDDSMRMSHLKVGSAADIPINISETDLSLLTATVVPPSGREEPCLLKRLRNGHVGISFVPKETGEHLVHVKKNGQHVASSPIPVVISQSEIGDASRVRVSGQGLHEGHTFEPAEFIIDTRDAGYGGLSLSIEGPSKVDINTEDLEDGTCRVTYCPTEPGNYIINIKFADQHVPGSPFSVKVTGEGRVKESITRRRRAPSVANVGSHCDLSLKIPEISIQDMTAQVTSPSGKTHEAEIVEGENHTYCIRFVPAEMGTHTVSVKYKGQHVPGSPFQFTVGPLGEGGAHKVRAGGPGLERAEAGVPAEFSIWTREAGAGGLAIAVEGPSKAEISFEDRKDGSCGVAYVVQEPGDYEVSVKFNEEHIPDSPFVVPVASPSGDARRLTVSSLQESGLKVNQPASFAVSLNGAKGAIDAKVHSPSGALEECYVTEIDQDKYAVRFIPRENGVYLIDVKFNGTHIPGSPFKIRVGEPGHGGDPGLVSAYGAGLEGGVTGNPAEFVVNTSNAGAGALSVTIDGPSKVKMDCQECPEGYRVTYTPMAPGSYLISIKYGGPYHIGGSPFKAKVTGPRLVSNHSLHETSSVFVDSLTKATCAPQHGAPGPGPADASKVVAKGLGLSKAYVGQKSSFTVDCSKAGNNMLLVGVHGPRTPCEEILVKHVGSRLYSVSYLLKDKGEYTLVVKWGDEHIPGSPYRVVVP

[3] = read-out: Percent inhibition of FITC-NLX binding, 0.01 μM, 0.01 μM compound, 10 nM FITC-NLX
[4] = read-out: Percent inhibition of FITC-NLX binding, 0.1 μM, 0.1 μM compound, 10 nM FITC-NLX
[5] = read-out: Percent inhibition of FITC-NLX binding, 1 μM, 1 μM compound, 10 nM FITC-NLX
[6] = read-out: Percent inhibition of FITC-NLX binding, 0.01 μM
[7] = read-out: Percent inhibition of FITC-NLX binding, 0.1 μM
[8] = read-out: Percent inhibition of FITC-NLX binding, 1 μM

Row | SMILES | mean maximum antinociception ([1]; oral, 56 mg/kg) | [35S]GTPγS binding to Gαo, FLNA-binding compound as agonist 0.1 μM (μ opiate receptor (MOR)) [%] | [35S]GTPγS binding to Gαo, FLNA-binding compound as agonist 1 μM + BFNA (μ opiate receptor (MOR)) [%] | [35S]GTPγS binding to Gαo, FLNA-binding compound as agonist 1 μM (μ opiate receptor (MOR)) [%] | mean maximum antinociception ([1]; 32 mg/kg) | time of maximum antinociception ([1]; 32 mg/kg) [min] | inhibition at 0.01 µM [2, 3] [%] | inhibition at 0.1 µM [2, 4] [%] | inhibition at 1 µM [2, 5] [%] | % DAMGO + BFNA (μ opiate receptor (MOR)) [%] | % DAMGO (0.1 μM) (μ opiate receptor (MOR)) [%] | % DAMGO (1 μM) (μ opiate receptor (MOR)) [%] | inhibition at 0.01 µM [2, 6] [%] | inhibition at 0.1 µM [2, 7] [%] | inhibition at 1 µM [2, 8] [%] | Kd (filamin A) [pM]
1 | CC1CCC(C(C)C)C(OCC(O)CN2CCN(CCN3CCOCC3)CC2)C1 (stereo not drawn) [Compound A0011] | about 38% | 236.3 | 47.0 | 287.5 | – | – | – | – | – | – | – | – | – | – | – | –
2 | OC(COc1ccccc1Br)CN1CCN(CCN2CCOCC2)CC1 (stereo not drawn) [Compound A0064] | – | 219.2 | 43.7 | 262.9 | about 50% | 30 to 50 | 41.8 | 46.2 | 53.6 | 126.7 | 127.4 | 119.7 | – | – | – | –
3 | CC1CN(CC(O)COc2ccc(Br)c(F)c2)CC(C)O1 (stereo not drawn) [Compound A0041] | – | 212.7 | 50.6 | 283.6 | about 12% | 10 to 15 | – | – | – | – | – | – | – | – | – | –
4 | COc1ccc(OCC(O)CN2CCN(Cc3ccccc3)CC2)cc1 (stereo not drawn) [Compound A0073] | – | 201.7 | 185.8 | 325.7 | – | – | – | – | – | 344.7 | 100.5 | 103.7 | 47.3 | 54.8 | 59.7 | –
5 | C=CCN1CC[C@]23c4c5ccc(O)c4O[C@H]2C(=O)CC[C@@]3(O)[C@H]1C5 [NLX, naloxone] | – | – | – | – | – | – | – | – | – | – | – | – | – | – | – | ~4
6 | OC(CN1CCc2ccccc2C1)OCc1ccc(Br)c(F)c1 (stereo not drawn) [Compound A0057] | – | 124.2 | 44.8 | 192.1 | – | – | – | – | – | 112.3 | 79.6 | 83.3 | 29.1 | 37 | 43.4 | –
7 | COc1ccc(OCC(O)CN2CCC(=O)CC2)cc1 (stereo not drawn) [Compound A0071] | – | 225.7 | 239.4 | 310.9 | – | – | 44.7 | 46.8 | 53.9 | 1088.2 | 128.2 | 122.9 | – | – | – | –
